Assay results: patent publication US9233946B2, “Sulfonamide compounds” (KANCERA AB, priority 2010, dated 2016)
pIC50: −log10 of the molar value. Blank lines part the entries; values can stand above or below the molecule they belong to.

What was measured:
PFKFB4 = PFKFB4 (Homo sapiens (Human), UniProt Q16877); experiment: PFKFB4 kinase activity, Method B (ADP-Glo Kinase Assay); format: biochemical
Source text: The PFKFB3 (placenta form) and PFKFB4 were produced and purified to homogeneity from E. coli at Biovitrum and at Sprint Bioscience. All other reagents were purchased from commercial sources. Two independent methods have been used for determination of the kinase activity of PFKFB3 (Method A and Method B). Method B has been used for determination of the kinase activity of PFKFB4.
Method B: The kinase activity of the bi-functional enzyme is readily quantified based on the production of ADP and F-2,6-P2 from ATP and F6P. The ADP is detected with a kit, ADP-Glo™ Kinase Assay^(a-e), from Promega. The assay is a luminescent ADP detection assay that measures kinase activity by quantifying the amount of ADP produced during the kinase reaction. The assay is performed in two steps; first, after the kinase reaction, an equal volume of ADP-Glo™ Reagent is added to terminate the kinase reaction and deplete the remaining ATP. Second, the Kinase Detection Reagent is added to simultaneously convert ADP to ATP and allow the newly synthesized ATP to be measured using a luciferase/luciferine reaction. The light generated is measured using a luminescence counter (1450 MicroBeta TriLux).
The assay was performed in white 384-well microtiter plates (OptiPlate, 6007299, PerkinElmer) by consecutive additions of 0.1 μL of a test compound solution (serial diluted in DMSO from compound DMSO stock solution and dispensed by acoustic dispensing from UV-star 384-well plate 7360153, VWR), 5 μL of enzyme solution and 5 μL of a substrate (fructose-6-phosphate (F6P) and adenosine-5′-triphosphate (ATP)) containing solution. […] Four reference dose response curves, one of them being the QC compound, were included in row O1-2, P1-2, and serial diluted as the test compounds. The final concentrations of all reagents in a total assay volume of 10.1 μL per well were: • 50 mM Tris-HCl at pH 8.0 • 10 mM MgCl2 • 5 mM Na2HPO4 at pH 8.0 • 81.48 nM PFKFB3 or 145 nM PFKFB4 • 8 μM ATP • 100 μM F6P (acid treated and then neutralized to remove any contaminating F-2,6-P2; see Van Schaftingen, 1984) • 0.005% Tween-20 • 1 mM dithiothreitol (DTT) • A test compound at various concentrations or controls (final DMSO concentration 0.99%)
Enzyme, compounds and controls were pre-incubated at room temperature for 15 min before the addition of substrate solution. The enzymatic reaction was allowed to proceed for 20 min (PFKFB3) or 40 min (PFKFB4) at room temperature. The reaction was terminated by the addition of 10 μL of ADP-Glo™ Reagent to all wells and the plate was incubated for 40 min at room temperature. After addition of 20 μL Kinase Detection Reagent to all wells the plate was incubated for 30 min at room temperature, followed by measurement in 1450 MicroBeta TriLux. All plates were centrifuged after each addition (room temperature, short spin, 500 RPM, Megafuge 1.0 Heraeus Instruments).
The inhibitory potency or IC50 values of test compounds on the kinase activity of PFKFB3 or PFKFB4 were calculated using a four-parameter model (model 205) in XLfit (IDBS ActivityBase XE Runner).

PANC-1 cells = experiment: Quantification of F-2,6-P2 in PANC-1 cells; format: cell-based; conditions: Homo sapiens; for inhibition at 12.5 µM: at 12.5 μM in PANC-1 cells; for pIC50: PANC-1, read-out: IC50 based on quantification of F-2,6-P2
Source text: The relative kinase (formation) and phosphatase (degradation) activities of the bi-functional enzymes PFKFB3 and PFKFB4 control the intracellular levels of the regulator F-2,6-P2, which acts as an allosteric activator of glycolysis. The levels of F-2,6-P2 have been determined in three different cancer cell lines (MCF-7, PANC-1 and NUGC-3) using the van Shaftingen assay. The assay protocols described under “Methods for measurement of enzymatic activity of PFKFB3 and PFKFB4, Method A” have been adapted for the measurement of the inhibitory effect of compounds on the kinase activity of the various isoforms of the bifunctional enzyme (endogenously expressed) in the different cell lines. The modifications are described in the protocol below. All reagents were purchased from commercial sources or prepared inhouse.
Cell Line B (PANC-1, Human Pancreatic Carcinoma Cell Line)
• Cells: PANC-1 (ATCC-CRL-1469). Lot. no: 58564651. • Growth medium: Dulbecco's Modified Eagle's Medium, DMEM, ATCC-30-2002 10% FBS, Invitrogen, 10106-169
Cells were seeded at a concentration of 250 000 cells/mL in 100 μL growth medium (25 000 cells/well)
Starvation medium: DMEM/F12 without phenol red and glucose free, SVA, 991373 0.25% FBS, Invitrogen, 10106-169
Induction medium: DMEM/F12 without phenol red and glucose free, SVA, 991373 0.25% FBS, Invitrogen, 10106-169 (same as starvation medium)
Cells were seeded in 96-well Corning Costar tissue culture plates (CLS3595, Sigma-Aldrich) using the concentrations specified above for the three different cell lines A-C and incubated over night at 37° C. and 5% CO2. Row A was left empty. Next day the growth medium was discarded and replaced with 100 μL starvation medium. The plates were incubated for 18 h at 37° C. and 5% CO2. After 18 h of starvation the cells were induced with 100 μL compound or control solutions. Compounds were either tested in two concentrations (50 μM and 10 μM) or in dose response curves starting from 50 μM and the final DMSO concentration in assay plates was 0.5%. Also a dose response curve of a reference inhibitor was included in row H on each plate. All compounds were tested in duplicate plates. Compounds (in 96 well CLS 3365, Sigma-Aldrich) were serial diluted in DMSO from 10 mM compound DMSO stock solutions with Janus (automated liquid handling workstation from PerkinElmer). 5 μL were transferred to a Greiner deep well plate (736-0155, VWR) with 495 μL starvation medium. The final start concentration of compounds in the dilution plate was 100 μM, 1% DMSO. For compounds tested as single points, 10 mM compound solutions were diluted five fold in DMSO to 2 mM, followed by the transfer of 5 μL to separate dilution plates with 495 μL starvation medium. The final concentration of compounds in these dilution plates were 100 or 20 μM, respectively, and final concentration of DMSO was 1%. The plates were incubated at 37° C. and 5% CO2 for 1 h, followed by the addition of 10 μL 20 mM D-glucose in starvation medium. Controls, with and without 1 mM glucose, were included in row B. The final assay volume was 210 μL per well. After 2 h of incubation at 37° C. and 5% CO2, supernatants were discarded and the cells were lysed by the addition of 25 μL 250 mM NaOH. The plates were incubated at 37° C. and 5% CO2 for 5 min followed by an addition of 75 μL MilliQ dH2O. The supernatants were further diluted with 210 μL MilliQ dH2O to a final concentration of 20 mM NaOH. 200 μL were transferred to NUNC 96-well plates (7322661, VWR) and the plates were sealed and stored at −20° C. until analysis.
The amount of F-2,6-P2 was quantified based on the coupled enzymatic reaction described by Van Schaftingen. If necessary the samples were further diluted in 20 mM NaOH before quantification. Plates stored at −20° C. were thawed and the F-2,6-P2 quantification was initiated by transferring 40 μL from each well of the NUNC plate to the corresponding position in a trans-parent 96-well SpectraPlate-MB (6005649, PerkinElmer). […]

Sequence of PFKFB4 (Q16877 whole entry): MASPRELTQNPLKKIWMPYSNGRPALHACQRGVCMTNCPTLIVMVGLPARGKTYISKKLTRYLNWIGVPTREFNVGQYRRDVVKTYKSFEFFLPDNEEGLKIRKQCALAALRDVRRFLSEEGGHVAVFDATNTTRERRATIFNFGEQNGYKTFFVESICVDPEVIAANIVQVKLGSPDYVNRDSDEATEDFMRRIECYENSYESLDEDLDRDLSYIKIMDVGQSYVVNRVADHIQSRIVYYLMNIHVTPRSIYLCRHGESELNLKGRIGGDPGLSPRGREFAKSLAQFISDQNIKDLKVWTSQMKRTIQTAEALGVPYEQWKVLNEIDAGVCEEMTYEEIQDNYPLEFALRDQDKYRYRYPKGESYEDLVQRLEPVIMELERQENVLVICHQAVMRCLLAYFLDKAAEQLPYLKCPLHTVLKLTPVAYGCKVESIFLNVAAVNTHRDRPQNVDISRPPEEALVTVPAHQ

pIC50 (PFKFB4): 6.38
Compound: COc1cccc2c(C)c(S(=O)(=O)Nc3cccc(C(=O)O)c3)sc12 [Example 42, 3-{[(7-Methoxy-3-methyl-1-benzothien-2-yl)sulfonyl]amino}benzoic acid]

pIC50 (PFKFB4): 6.70
Compound: Cc1c(S(=O)(=O)Nc2cccc(C(=O)O)c2)sc2c(Cl)cccc12 [Example 44, 3-{[(7-Chloro-3-methyl-1-benzothien-2-yl)sulfonyl]amino}benzoic acid]

pIC50 (PANC-1 cells): 5.89
Compound: Cc1c(S(=O)(=O)Nc2cccc(C(=O)OC3CCOC3)c2)sc2ccc(Cl)cc12 (stereo not drawn) [Example 116, Tetrahydrofuran-3-yl 3-{[(5-chloro-3-methyl-1-benzothiophen-2-yl)sulfonyl]amino}benzoate]

pIC50 (PANC-1 cells): 5.55
Compound: Cc1c(S(=O)(=O)Nc2cccc(C(=O)OCCCN(C)C)c2)sc2ccc(Cl)cc12 [Example 118, 3-(Dimethylamino)propyl 3-{[(5-chloro-3-methyl-1-benzothiophen-2-yl)sulfonyl]amino}benzoate]

pIC50 (PANC-1 cells): 5.15
Compound: COC(=O)Cn1nnc(-c2cccc(NS(=O)(=O)c3sc4ccc(C(C)C)cc4c3C)c2)n1 [Example 119, Methyl {5-[3-({[3-methyl-5-(1-methylethyl)-1-benzothiophen-2-yl]sulfonyl}amino)phenyl]-2H-tetrazol-2-yl}acetate]

pIC50 (PANC-1 cells): 5.46
Compound: COC(=O)c1cccc(NS(=O)(=O)c2sc3ccc(Br)cc3c2C)c1 [Example 120, Methyl 3-{[(5-bromo-3-methyl-1-benzothiophen-2-yl)sulfonyl]amino}benzoate]

pIC50 (PANC-1 cells): 5.05
Compound: COC(=O)c1cccc(NS(=O)(=O)c2sc3c(OC)cccc3c2C)c1 [Example 121, Methyl 3-{[(7-methoxy-3-methyl-1-benzothiophen-2-yl)sulfonyl]amino}benzoate]

pIC50 (PANC-1 cells): 5.06
Compound: COC(=O)c1cccc(NS(=O)(=O)c2sc3c(Cl)cccc3c2C)c1 [Example 122, Methyl 3-{[(7-chloro-3-methyl-1-benzothiophen-2-yl)sulfonyl]amino}benzoate]

More lines, now with the values behind:

Compound: Cc1c(S(=O)(=O)Nc2ncc(C(=O)O)s2)sc2ccc(C(C)C)cc12 [Example 7, 2-{[(5-Isopropyl-3-methyl-1-benzothien-2-yl)sulfonyl]amino}-1,3-thiazole-5-carboxylic acid]
pIC50 (PFKFB4): 7.00

Compound: O=S(=O)(Nc1cccc(-c2nnn[nH]2)c1)c1cccc(-c2ccccc2)c1 [Example 16, N-[3-(1H-Tetrazol-5-yl)phenyl]biphenyl-3-sulfonamide]
pIC50 (PFKFB4): 6.41

Compound: O=S(=O)(Nc1cccc(-c2nnn[nH]2)c1)c1c(Cl)cc(C(F)(F)F)cc1Cl [Example 18, 2,6-Dichloro-N-[3-(1H-tetrazol-5-yl)phenyl]-4-(trifluoromethyl)benzenesulfonamide]
pIC50 (PFKFB4): 6.29

Compound: CSc1nccc(-c2ccc(S(=O)(=O)Nc3cccc(-c4nnn[nH]4)c3)s2)n1 [Example 21, 5-[2-(Methylthio)pyrimidin-4-yl]-N-[3-(1H-tetrazol-5-yl)phenyl]thiophene-2-sulfonamide]
pIC50 (PFKFB4): 6.38

Compound: O=S(=O)(Nc1cccc(-c2nnn[nH]2)c1)c1ccc(-c2ccccc2Cl)s1 [Example 26, 5-(2-Chlorophenyl)-N-[3-(1H-tetrazol-5-yl)phenyl]thiophene-2-sulfonamide]
pIC50 (PFKFB4): 6.12

Compound: Cc1ccc2sc(S(=O)(=O)Nc3cccc(-c4nnn[nH]4)c3)cc2c1 [Example 40, 5-Methyl-N-[3-(1H-tetrazol-5-yl)phenyl]-1-benzothiophene-2-sulfonamide]
pIC50 (PFKFB4): 6.85

Compound: Cc1c(S(=O)(=O)Nc2cccc(-c3nnn[nH]3)c2)sc2ccc(F)cc12 [Example 43, 5-Fluoro-3-methyl-N-[3-(1H-tetrazol-5-yl)phenyl]-1-benzothiophene-2-sulfonamide]
pIC50 (PFKFB4): 6.77

Compound: O=S(=O)(Nc1cccc(-c2nnn[nH]2)c1)c1ccc(Br)cc1F [Example 57, 4-Bromo-2-fluoro-N-[3-(1H-tetrazol-5-yl)phenyl]benzenesulfonamide]
pIC50 (PFKFB4): 5.74

Compound: Cc1c(S(=O)(=O)Nc2cccc(C(=O)Oc3ccccc3)c2)sc2ccc(Cl)cc12 [Example 115, Phenyl 3-{[(5-chloro-3-methyl-1-benzothiophen-2-yl)sulfonyl]amino}benzoate]
inhibition at 12.5 µM (PANC-1 cells): > 50%

Compound: Cc1c(S(=O)(=O)Nc2cccc(C(=O)OCC3CCOC3)c2)sc2ccc(Cl)cc12 (stereo not drawn) [Example 117, Tetrahydrofuran-3-ylmethyl 3-{[(5-chloro-3-methyl-1-benzothiophen-2-yl)sulfonyl]amino}benzoate]
inhibition at 12.5 µM (PANC-1 cells): > 50%

Compound: COC(=O)c1cccc(NS(=O)(=O)c2oc3ccc(C(C)C)cc3c2C)c1 [Example 123, Methyl 3-({[3-methyl-5-(1-methylethyl)-1-benzofuran-2-yl]sulfonyl}amino)benzoate]
inhibition at 12.5 µM (PANC-1 cells): > 50%

Compound: CCOC(=O)c1sc(NS(=O)(=O)c2sc3ccc(Cl)cc3c2C)nc1C [Example 126, Ethyl 2-{[(5-chloro-3-methyl-1-benzothiophen-2-yl)sulfonyl]amino}-4-methyl-1,3-thiazole-5-carboxylate]
inhibition at 12.5 µM (PANC-1 cells): > 50%

Compound: CCOC(=O)c1sc(NS(=O)(=O)c2cc(-c3cc(F)ccc3F)c(Cl)s2)nc1C [Example 127, Ethyl 2-({[5-chloro-4-(2,5-difluorophenyl)thiophen-2-yl]sulfonyl}amino)-4-methyl-1,3-thiazole-5-carboxylate]
inhibition at 12.5 µM (PANC-1 cells): > 50%
